The test relates to 25OHD antibody. The conditions noted are these: even at a 25OHD3 concentration of 5 ng/ml; 7.5 ng/ml tracer; vitamin D-free serum matrix; OD 450 nm.

Procedure: For the ELISA detection of the specific 25OHD competition, 80 μl of vitamin D release reagent were added to serial dilutions of 25OHD3 in vitamin D-free serum matrix (SerCon, Seracare Inc.) in concentrations of 0, 5, 10, 20, 20, 50, 100, 200, 300 ng/ml in the presence of 7.5 ng/ml of biotin-25OHD tracer reagent and applied to microtitre plate wells coated with an anti-25OHD antibody. The binding of the tracer on the basis of the competing 25OHD concentration was determined with peroxidase-labelled streptavidin and a tetramethylbenzidine (TMB) colour reaction by measuring the OD 450 nm.
An antibody against 25-OH-vitamin D3 or 25-OH-vitamin D2 was diluted in Tris-buffered saline pH 8.0 to a concentration of 1 μg/ml. The wells of a microtitre plate (Maxisorb, Nunc) were coated with 100 μl of the diluted antibody, dried at 37° C. and stored at 4° C. until the test was carried out.
Defined concentrations of 25-OHD3 were added to vitamin D-free serum matrix (Seracon, Seracare Inc.). […] The antibody-bound biotin-25OHD tracer was detected with peroxidase-labelled streptavidin and a tetramethylbenzidine (TMB) colour reaction. After the substrate reaction had been stopped by addition of 100 μl of 50 mM phosphoric acid, the optical density was measured at 450 nm.

With “3α-[α-biotinamido-ω-dodeca(ethylene glycol)-amido]-25-hydroxy-deoxyvitamin D3 [VD1]”, the “competition of the tracer by 25OHD3 for binding sites on the 25OHD antibody” value is reported as “specific competition”.
